According to patent US20070117770A1, “Human ribosomal DNA (rDNA) and ribosomal RNA (rRNA) nucleic acids and uses thereof” (Cylene Pharmaceuticals, Inc., priority 2005, published 2007):

What was measured:
[1] = molecular target: T1, nucleolin/6534NT (Homo sapiens, UniProt P19338); assay: EMSA, interference with nucleolin/nucleic acid ligand interaction; type: binding; conditions: ligand 6534NT, read-out: IC50, concentration of Compound A-1 required to dissociate half of the complexed nucleic acid ligand and nucleolin protein
T1 construct: without the N-terminal acidic stretches domain
Experimental: (§1) The following assays assessed effects of compounds on interactions between nucleolin and nucleic acid ligands capable of forming quadruplex (QP) and hairpin (HP) secondary structures. Nucleic acid ligands tested were a cMyc QP DNA having nucleotide sequence 5′-[…]-3′ (SEQ ID NO: 176) and a HP pre-rRNA region to which nucleolin binds, having the sequence 5′-[…]-3′ (SEQ ID NO: 177). In the assays, recombinant nucleolin (˜250 nM), which was fused to maltose binding protein and had the sequence under accession number NM_005381 without the N-terminal acidic stretches domain, was incubated with each of the two ^32P-labeled nucleic acid ligands (10 or 250 nM). Nucleolin and the nucleic acid ligand were incubated in the presence or absence of a test compound of Formula A-1, B-1, C-6 or C-7 in an incubation buffer (12.5 mM Tris, pH 7.6, 60 mM KCl, 1 mM MgCl2, 0.1 mM EDTA, 1 mM DTT, 5% glycerol, 0.1 mg/ml BSA) for 30 minutes at room temperature. Structures for A-1 and B-1 are shown above and structures for C-6 and C-7 are shown hereafter: [drawing 17] The resulting complexes were separated on a 6% DNA retardation gel using 0.5× TBE with 20 mM KCl as a running buffer (i.e., electrophoresis mobility shift assay (EMSA)).
(§2) The assay also was conducted using nucleic acid ligands derived from human ribosomal DNA. Sequences of these nucleic acids are shown in the preceding example. […] A “+” represents the weakest nucleolin affinity and least interference by compound A-1 and a “++++” represents the strongest nucleolin affinity and greatest interference by compound A-1.
(§3) The assay also was conducted in a filter-binding format. […] The protein-quadruplex mixtures were incubated for 30 min at ambient temperature and filtered through mixed cellulose ester membrane filters (Millipore) with gentle suction. The filters were washed twice with […] of binding buffer, dried and OptiPhase ‘SuperMix’ scintillation cocktail (Perkin Elmer) was added to the wells. Radioactivity was assayed with MicroBeta scintillation counter (Perkin Elmer). Binding curves were constructed and apparent Kd's and Bmax's for the complexes were calculated using the GraphPad Prizm software program (GraphPad Software). In the following table, the nucleic acid ligand is designated in the first column using the nomenclature described herein; the second column provides the nucleotide sequence of the nucleic acid ligand; the third column is the conformation of the ligand as determined by circular dichroism (M is mixed, P is parallel, A is antiparallel, C is complex, SS is single-stranded and ND is not determined); the fourth column is the dissociation constant determined by the filter binding assay of nucleolin protein and the nucleic acid ligand; the fifth column is a Bmax constant determined by the filter binding assay, which is the percent of active nucleic acid ligand in each assay; and the sixth column presents the concentration of Compound A-1 required to dissociate half of the complexed nucleic acid ligand and nucleolin protein, as determined by the EMSA assay described above.

[2] = molecular target: T2, nucleolin/6374NT (Homo sapiens, UniProt P19338); assay: as above; type: binding; conditions: ligand 6374NT, read-out: IC50, concentration of Compound A-1 required to dissociate half of the complexed nucleic acid ligand and nucleolin protein
T2 construct: without the N-terminal acidic stretches domain
Experimental: as §1, §2, §3

[3] = molecular target: T3, nucleolin/7253NT (Homo sapiens, UniProt P19338); assay: as above; type: binding; conditions: ligand 7253NT, read-out: IC50, concentration of Compound A-1 required to dissociate half of the complexed nucleic acid ligand and nucleolin protein
T3 construct: without the N-terminal acidic stretches domain
Experimental: as §1, §2, §3

[4] = molecular target: T4, nucleolin/5701NT (Homo sapiens, UniProt P19338); assay: as above; type: binding; conditions: ligand 5701NT, read-out: IC50, concentration of Compound A-1 required to dissociate half of the complexed nucleic acid ligand and nucleolin protein
T4 construct: without the N-terminal acidic stretches domain
Experimental: as §1, §2, §3

[5] = molecular target: T5, nucleolin/2957NT (Homo sapiens, UniProt P19338); assay: as above; type: binding; conditions: ligand 2957NT, read-out: IC50, concentration of Compound A-1 required to dissociate half of the complexed nucleic acid ligand and nucleolin protein
T5 construct: without the N-terminal acidic stretches domain
Experimental: as §1, §2, §3

[6] = molecular target: T6, nucleolin/6960NT (Homo sapiens, UniProt P19338); assay: as above; type: binding; conditions: ligand 6960NT, read-out: IC50, concentration of Compound A-1 required to dissociate half of the complexed nucleic acid ligand and nucleolin protein
T6 construct: without the N-terminal acidic stretches domain
Experimental: as §1, §2, §3

[7] = molecular target: T7, nucleolin/8511NT (Homo sapiens, UniProt P19338); assay: as above; type: binding; conditions: ligand 8511NT, read-out: IC50, concentration of Compound A-1 required to dissociate half of the complexed nucleic acid ligand and nucleolin protein
T7 construct: without the N-terminal acidic stretches domain
Experimental: as §1, §2, §3

[8] = molecular target: T8, nucleolin/8762NT (Homo sapiens, UniProt P19338); assay: as above; type: binding; conditions: ligand 8762NT, read-out: IC50, concentration of Compound A-1 required to dissociate half of the complexed nucleic acid ligand and nucleolin protein
T8 construct: without the N-terminal acidic stretches domain
Experimental: as §1, §2, §3

[9] = test system: rRNA synthesis, HCT-116; assay: PCR assay of rRNA synthesis from 45S rDNA (5' ETS probe); type: cell-based; conditions: various concentrations; two hour or four hour incubation (FIGS. 4A, 4B)
Experimental: Assays were conducted to determine the effects of compounds on rRNA synthesis from 45S rDNA. In particular, compound A-1 at various concentrations was incubated with cells and tested for an effect on rRNA synthesis after a two hour or four hour incubation with the compound. Synthesized rRNA was quantified by a polymerase chain reaction (PCR) assay. A primer/probe set was designed using Primer Express software and synthesized by Applied Biosystems. The 5′ ETS Probe utilized had the following sequence (@ its 3′ end): 6FAM-TTG ATC CTG CCA GTA GC-MGBNFQ (SEQ ID NO:227). The primer sequences were as follows:
Mix • 1 ug RNA • 2.5 ul 10× Taq Man buffer • 5.5 ul 25 mM MgCl2 • 5 ul of a mix of dNTP (500 uM each) • 1.2 ul random hexamer primer (2.5 uM stock) • 0.5 ul RNase inhibitor (0.4 units/ul) • 0.6 ul Reverse Transcriptase (1.2 units/ul) • bring to 25 ul total volume with water
Mix • 5 ul Reverse Transcriptase reaction product • 12.5 ul 2×PCR mix • 1 uM forward primer • 1 uM reverse primer • 0.5 uM Taq Man probe • 500 nM Rox • Adjust to 25 ul final volume with water
PCR cycles • 95 degrees C. 1 minute • 40 cycles of • 95 degrees C. 15 seconds • 60 degrees C. 1 minute.
Fluorescence of digested label was detected and quantified. […] The effect of other compounds on rRNA synthesis also were assessed in the assay, and provided in the table hereafter are IC50 values of selected compounds pertaining to rRNA synthesis and cMYC RNA synthesis.

T7 sequence (P19338 284-710 limits assumed): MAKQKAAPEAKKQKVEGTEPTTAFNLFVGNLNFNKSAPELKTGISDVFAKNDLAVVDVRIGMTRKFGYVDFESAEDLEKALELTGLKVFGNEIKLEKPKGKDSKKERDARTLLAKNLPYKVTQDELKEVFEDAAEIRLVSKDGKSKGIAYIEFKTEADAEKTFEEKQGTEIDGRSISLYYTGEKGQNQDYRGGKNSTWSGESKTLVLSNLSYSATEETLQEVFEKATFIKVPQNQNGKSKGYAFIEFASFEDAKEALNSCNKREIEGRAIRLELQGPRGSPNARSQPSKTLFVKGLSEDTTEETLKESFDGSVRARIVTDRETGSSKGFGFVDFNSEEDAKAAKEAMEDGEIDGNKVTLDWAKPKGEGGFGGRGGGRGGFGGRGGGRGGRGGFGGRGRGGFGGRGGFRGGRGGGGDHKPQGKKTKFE
T4 sequence (P19338 284-710 limits assumed): as above
T1 sequence (P19338 284-710 limits assumed): as above
T2 sequence (P19338 284-710 limits assumed): as above
T8 sequence (P19338 284-710 limits assumed): as above
T3 sequence (P19338 284-710 limits assumed): as above
T6 sequence (P19338 284-710 limits assumed): as above
T5 sequence (P19338 284-710 limits assumed): as above

Compound: CN1CCCC1CCNC(=O)c1cn2c3c(c(N4CCC(c5cnccn5)C4)c(F)cc3c1=O)Oc1cc3ccccc3cc1-2 (stereo not drawn) [Compound A-1]
- IC50 [1]: 10 µM
- IC50 [2]: 3 µM
- IC50 [3]: 10 µM
- IC50 [4]: 3 µM
- IC50 [5]: 1 µM
- IC50 [6]: 3 µM
- IC50 [7]: 10 µM
- IC50 [8]: 10 µM
- effect on rRNA synthesis [9]: inhibited rRNA synthesis at two hours and four hours
